Read-outs that look alike come from different tables or passages of the source.

This passage reports IC50 results from patent US11236059B2, “Targeted cytotoxic ratjadone derivatives and conjugates thereof” (HELMHOLTZ-ZENTRUM FUER INFEKTIONSFORSCHUNG GMBH, priority 2017, dated 2022).

Test [1] deals with KB 3.1 (DSMZ ACC 158) cells. Description: cells. As to conditions: Homo sapiens, KB 3-1, 120 h.
In test [2] the test system is A549 (DSMZ ACC 107) cells. As to the kind of experiment: cells. As to conditions: Homo sapiens, A549, 120 h. Type of test: cell-based. The protocol: (§1) 60 μL of serial dilutions of the test compound were given to 120 μL of suspended cells (50.000/mL) in wells of 96-well plates. After 5 days of incubation growth inhibition (IC50) was determined using an MTT assay.^[64]

The test system of test [3] is SKOV-3 (DSMZ ATCC HTB 77) cells. Description: cells. It counts as cell-based. As to conditions: Homo sapiens, SK-OV-3, 120 h. The protocol:
as §1

The test system of test [4] is MCF-7 (DSMZ ACC 115) cells. Description: cells. Type of test: cell-based. The settings on record: Homo sapiens, MCF7, 120 h. The protocol:
as §1

The next test concerns the target T1, CRM1 (Homo sapiens, UniProt O14980).
T1 construct: HeLa cells stably expressing a fluorescent translocation biosensor (HeLaRevBio); endogenous in cells; host or cells: HeLa (HeLaRevBio in A7; HeLa in A8)
As to the kind of experiment: Monitoring export inhibitory activity (translocation biosensor, HeLaRevBio cells). Type of test: cell-based. The procedure: Export inhibitory ability of compounds was evaluated with the translocation biosensor system. This cellular assay depends on a recombinantly expressed fusion protein consisting of a nuclear localization signal (SV40-NLS), glutathione S-transferase (GST), green fluorescent protein (GFP) and a nuclear export signal (HIV1-RevNES). Due to the two transport signals (NLS/NES), the biosensor is permanently shuttling between nucleus and cytoplasm but resides prominently in the cytoplasm due to a comparatively stronger NES. Export inhibiting compound induce a nuclear accumulation of the GFP-signal^[65,66] Cell lines were maintained as recommended by the American Type Culture Collection in DMEM containing 5% glutamine (Thermo Fisher Scientific, Waltham, USA) supplemented with 10% FBS (Thermo Fisher Scientific, Waltham, USA). For quantifying the nuclear export inhibitory effect, HeLa cells stably expressing a fluorescent translocation biosensor (HeLaRevBio)^[67] were seeded into black 96 well μclear plates (Greiner, Germany). They next day compounds were added covering an appropriate concentration range. After 1h of incubation, cells were fixed in 4% PFA for 10 min and permeabilized with 0.1% Triton X 100 in PBS for 5 min. After washing with PBS nuclei were labeled with Hoechst H33342 (30 min 10 μg/ml). The intracellular distribution of the biosensor-dependent GFP signal was quantitatively evaluated with the high content imaging system ImageXpress MicroXLS (Molecular Devices, Sunnyvale, USA). By using the translocation enhanced application module (Molecular Devices, Sunnyvale, USA) the GFP-intensity was quantified in the cytoplasm and nuclear region. As final readout the difference of Mean Inner and Mean Outer Intensity was calculated. IC50s of nuclear export inhibition were calculated using Sigma Plot with four parameter logistics curve regression (Systat Software GmbH, Erkrath, Germany). […] The following day compounds were added at 125 nM final concentration.

Test [5] deals with KB 3.1 (DSMZ ACC 158) cells. Description: Cell proliferation assay under folate free conditions. It counts as cell-based. The settings on record: RPMI-medium without folic acid + 10% dialyzed fetal calf serum; MTT assay after 1, 2 and 5 days (day of the value not given); read-out: IC50 [nM] KB 3.1 (Folate-Ratjadone Conjugates). The procedure:
KB 3.1 (DSMZ ACC 158) cells were cultivated at 37° C. and 10% C002 in RMPI-medium without folic acid (Gibco) with 10% fetal calf serum (Gibco). 120 μL of suspended cells (100.000/mL) were seeded in wells of 96-well plates and after 24 h at 37° C. and 10% CO2 the medium was removed, the cells were washed with PBS and RPMI-medium without folic acid (Gibco)+10% dialyzed fetal calf serum (Sigma) were added to the cells, before after additional 24 h at 37° C. and 10% C002 60 μL of serial dilutions of the test compound were given to cells. After 1, 2 and 5 days of incubation growth inhibition (IC50) was determined using an MTT assay.^[64]

[6] abbreviates: read-out: IC50 [nM] KB-3.1, growth inhibition, 5 days of incubation, MTT assay.
[7] abbreviates: read-out: IC50 [nM] A-549, growth inhibition, 5 days of incubation, MTT assay.
[8] abbreviates: read-out: IC50 [nM] SK-OV-3, growth inhibition, 5 days of incubation, MTT assay.
[9] abbreviates: read-out: IC50 [nM] MCF-7, growth inhibition, 5 days of incubation, MTT assay.
Where [10] appears, read: HeLa cells stably expressing translocation biosensor, 1h of incubation, read-out: IC50 [nM] CRM1 (nuclear export inhibition).

T1 sequence (O14980 whole entry): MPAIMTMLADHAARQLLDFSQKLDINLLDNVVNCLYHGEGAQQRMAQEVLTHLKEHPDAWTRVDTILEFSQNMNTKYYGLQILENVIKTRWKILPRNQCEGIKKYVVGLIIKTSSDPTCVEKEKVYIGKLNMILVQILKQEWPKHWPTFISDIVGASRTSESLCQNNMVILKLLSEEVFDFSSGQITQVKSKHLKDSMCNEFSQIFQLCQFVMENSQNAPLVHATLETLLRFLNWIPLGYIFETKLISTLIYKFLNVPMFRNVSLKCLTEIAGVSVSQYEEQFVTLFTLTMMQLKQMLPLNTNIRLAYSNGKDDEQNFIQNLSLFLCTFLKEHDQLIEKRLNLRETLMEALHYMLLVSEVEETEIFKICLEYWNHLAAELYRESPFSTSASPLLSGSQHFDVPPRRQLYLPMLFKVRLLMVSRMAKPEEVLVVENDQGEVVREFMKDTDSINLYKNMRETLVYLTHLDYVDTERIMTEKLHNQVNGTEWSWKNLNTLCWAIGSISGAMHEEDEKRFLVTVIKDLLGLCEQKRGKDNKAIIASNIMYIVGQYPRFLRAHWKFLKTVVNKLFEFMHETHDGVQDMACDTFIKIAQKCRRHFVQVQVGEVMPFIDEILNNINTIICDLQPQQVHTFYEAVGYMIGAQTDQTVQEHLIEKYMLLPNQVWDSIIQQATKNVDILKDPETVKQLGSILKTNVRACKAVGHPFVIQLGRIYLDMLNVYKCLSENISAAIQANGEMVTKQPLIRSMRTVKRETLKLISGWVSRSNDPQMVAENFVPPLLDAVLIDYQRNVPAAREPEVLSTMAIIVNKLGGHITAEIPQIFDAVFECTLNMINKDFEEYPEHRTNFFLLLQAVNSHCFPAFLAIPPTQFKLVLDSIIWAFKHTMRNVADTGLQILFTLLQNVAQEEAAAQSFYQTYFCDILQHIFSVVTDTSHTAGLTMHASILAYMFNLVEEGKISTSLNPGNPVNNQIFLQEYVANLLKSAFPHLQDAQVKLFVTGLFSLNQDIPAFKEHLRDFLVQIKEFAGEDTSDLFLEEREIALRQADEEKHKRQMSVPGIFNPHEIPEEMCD

As to `C/C=C/[C@@H]1O[C@H]([C@@H](/C=C/C=C(\C)C[C@@H](C)/C=C(C)\C=C\[C@H]2CC=CC(=O)O2)NC(=O)CCSSc2ccccn2)C[C@@H](O)[C@@H]1C` [2-PySS(CH2)2(CO)NH-Ratja 35, N-((1R,2E,4E,7R,8Z,10E)-1-((2S,4R,5S,6S)-4-Hydroxy-5-methyl-6-((E)-prop-1-en-1-yl)tetrahydro-2H-pyran-2-yl)-5,7,9-trimethyl-11-((R)-6-oxo-3,6-dihydro-2H-pyran-2-yl)undeca-2,4,8,10-tetraen-1-yl)-3-(pyridin-2-yldisulfaneyl)propanamide], the IC50 in test [1] (setting [6]) worked out at 8.8 nM; in test [2] (setting [7]), 30.6 nM; in test [3] (setting [8]), 24.6 nM; in test [4] (setting [9]) it was 26 nM; on CRM1 (setting [10]), 44.1 nM.
For `C/C=C/[C@@H]1O[C@H](C(=O)/C=C/C=C(\C)C[C@@H](C)/C=C(C)\C=C\[C@H]2CC=CC(=O)O2)CC(=O)[C@@H]1C` [16,19-Dioxo-Ratjadone 10, (R)-6-((R,1E,3Z,7E,9E)-3,5,7-trimethyl-11-((2S,5R,6S)-5-methyl-4-oxo-6-((E)-prop-1-en-1-yl)tetrahydro-2H-pyran-2-yl)-11-oxoundeca-1,3,7,9-tetraen-1-yl)-5,6-dihydro-2H-pyran-2-one], in that order: 3.98 nM, 9.72 nM, 1.59 nM, 2.87 nM and 17.5 nM.
With `C/C=C/[C@@H]1O[C@H]([C@H](/C=C/C=C(\C)C[C@@H](C)/C=C(C)\C=C\[C@H]2CC=CC(=O)O2)NC(=O)OC)C[C@@H](O)[C@@H]1C` [16R-Amino-Ratjadone methyl carbamate 19, methyl ((1S,2E,4E,7R,8Z,10E)-1-((2S,4R,5S,6S)-4-hydroxy-5-methyl-6-((E)-prop-1-en-1-yl)tetrahydro-2H-pyran-2-yl)-5,7,9-trimethyl-11-((R)-6-oxo-3,6-dihydro-2H-pyran-2-yl)undeca-2,4,8,10-tetraen-1-yl)carbamate], the figures for the IC50 (in test [1] (setting [6]); on CRM1) were 2.53 nM and 12.5 nM, respectively.
Regarding `C/C=C/[C@@H]1O[C@H]([C@@H](/C=C/C=C(\C)C[C@@H](C)/C=C(C)\C=C\[C@H]2CC=CC(=O)O2)NC(=O)OC)C[C@@H](O)[C@@H]1C` [16S-Amino-Ratjadone methyl carbamate 20, methyl ((1R,2E,4E,7R,8Z,10E)-1-((2S,4R,5S,6S)-4-hydroxy-5-methyl-6-((E)-prop-1-en-1-yl)tetrahydro-2H-pyran-2-yl)-5,7,9-trimethyl-11-((R)-6-oxo-3,6-dihydro-2H-pyran-2-yl)undeca-2,4,8,10-tetraen-1-yl)carbamate], the IC50 came to 8.18 nM in test [1] (setting [6]) and 23.5 nM at CRM1.
As to `C#CCCOC(=O)N[C@H](C(=O)N[C@@H](CCCNC(N)=O)C(=O)Nc1ccc(COC(=O)N[C@H](/C=C/C=C(\C)C[C@@H](C)/C=C(C)\C=C\[C@H]2CC=CC(=O)O2)[C@@H]2C[C@@H](O)[C@H](C)[C@H](/C=C/C)O2)cc1)C(C)C` [But-3-yn-1-yl ((S)-1-(((S)-1-((4-(((((1R,2E,4E,7R,8Z,10E)-1-((2S,4R,5S,6S)-4-hydroxy-5-methyl-6-((E)-prop-1-en-1-yl)tetrahydro-2H-pyran-2-yl)-5,7,9-trimethyl-11-((R)-6-oxo-3,6-dihydro-2H-pyran-2-yl)undeca-2,4,8,10-tetraen-1-yl)carbamoyl)-oxy)methyl)phenyl)amino)-1-oxo-5-ureidopentan-2-yl)amino)-3-methyl-1-oxobutan-2-yl)carbamate], the IC50 was found to be 9.2 nM in test [1] (read-out: IC50 [nM] KB-3.1); 25.1 nM in test [2] (growth inhibition, 5 days of incubation, MTT assay, read-out: IC50 [nM] A-549); 13.6 nM in test [3] (growth inhibition, 5 days of incubation, MTT assay, read-out: IC50 [nM] SK-OV-3); 12.5 nM in test [4] (growth inhibition, 5 days of incubation, MTT assay, read-out: IC50 [nM] MCF-7).
As to `C/C=C/[C@@H]1O[C@H]([C@@H](/C=C/C=C(\C)C[C@@H](C)/C=C(C)\C=C\[C@H]2CC=CC(=O)O2)NC(=O)OCc2ccc(NC(=O)[C@H](CCCNC(N)=O)NC(=O)[C@@H](NC(=O)OC[C@@H]3[C@@H]4CCc5nnn(CCC[C@H](NC(=O)[C@@H](CC(=O)O)NC(=O)[C@@H](CC(=O)O)NC(=O)[C@H](CCCn6nnc7c6CC[C@H]6[C@@H](CC7)[C@H]6COC(=O)N[C@H](C(=O)N[C@@H](CCCNC(N)=O)C(=O)Nc6ccc(COC(=O)N[C@H](/C=C/C=C(\C)C[C@@H](C)/C=C(C)\C=C\[C@H]7CC=CC(=O)O7)[C@@H]7C[C@@H](O)[C@H](C)[C@H](/C=C/C)O7)cc6)C(C)C)NC(=O)[C@@H](CC(=O)O)NC(=O)[C@@H](CC(=O)O)NC(=O)[C@H](CCCn6nnc7c6CC[C@H]6[C@@H](CC7)[C@H]6COC(=O)N[C@H](C(=O)N[C@@H](CCCNC(N)=O)C(=O)Nc6ccc(COC(=O)N[C@H](/C=C/C=C(\C)C[C@@H](C)/C=C(C)\C=C\[C@H]7CC=CC(=O)O7)[C@@H]7C[C@@H](O)[C@H](C)[C@H](/C=C/C)O7)cc6)C(C)C)NC(=O)[C@@H](CC(=O)O)NC(=O)[C@@H](CC(=O)O)NC(=O)CC[C@H](NC(=O)c6ccc(NCc7cnc8nc(N)nc(O)c8n7)cc6)C(=O)O)C(=O)O)c5CC[C@@H]43)C(C)C)cc2)C[C@@H](O)[C@@H]1C` [FA-11-(Val-Cit-PABA-16R-Aminoratjadone)3], in test [5], the IC50 worked out at 45 nM.
The same measure, in the same setting: the figure for `C/C=C/[C@@H]1O[C@H]([C@@H](/C=C/C=C(\C)C[C@@H](C)/C=C(C)\C=C\[C@H]2CC=CC(=O)O2)NC(=O)CCSSC[C@H](NC(=O)CC[C@H](NC(=O)c2ccc(NCc3cnc4nc(N)nc(O)c4n3)cc2)C(=O)O)C(=O)O)C[C@@H](O)[C@@H]1C` [FA-SS-16R-Aminoratjadone, N^2-(4-(((2-amino-4-hydroxypteridin-6-yl)methyl)amino)benzoyl)-N^5-((R)-1-carboxy-2-((3-(((1R,2E,4E,7R,8Z,10E)-1-((2S,4R,5S,6S)-4-hydroxy-5-methyl-6-((E)-prop-1-en-1-yl)tetrahydro-2H-pyran-2-yl)-5,7,9-trimethyl-11-((R)-6-oxo-3,6-dihydro-2H-pyran-2-yl)undeca-2,4,8,10-tetraen-1-yl)amino)-3-oxopropyl)disulfaneyl)ethyl)-L-glutamine] is 295 nM.
Turning to `C#CCCC(=O)NCCSSCCC(=O)N[C@H](/C=C/C=C(\C)C[C@@H](C)/C=C(C)\C=C\[C@H]1CC=CC(=O)O1)[C@@H]1C[C@@H](O)[C@H](C)[C@H](/C=C/C)O1` [N-(2-((3-(((1R,2E,4E,7R,8Z,10E)-1-((2S,4R,5S,6S)-4-hydroxy-5-methyl-6-((E)-prop-1-en-1-yl)tetrahydro-2H-pyran-2-yl)-5,7,9-trimethyl-11-((R)-6-oxo-3,6-dihydro-2H-pyran-2-yl)undeca-2,4,8,10-tetraen-1-yl)amino)-3-oxopropyl)disulfaneyl)-ethyl)pent-4-ynamide], the IC50 in test [1] (setting [6]) turned out to be 1.86 nM; in test [2] (setting [7]), 0.86 nM; in test [3] (setting [8]) it was 1.09 nM; in test [4] (setting [9]), 0.17 nM.
